Patent US20240158446A1, “CYCLIC COMPOUND HAVING SELECTIVE INHIBITORY ACTION ON KRAS OVER HRAS AND NRAS” (CHUGAI SEIYAKU KABUSHIKI KAISHA, priority 2021, published 2024)
Where two headings read alike, the source gives them in different places. Where a SMILES comes first, the peptide text is derived from it. Bridges are numbered along the chain shown (N, C = ends). [ ]: non-standard residue; d: D form. The star is where a group is joined. hPhe(3-Cl-4-CF3) = N[C@@H](CCc1ccc(C(F)(F)F)c(Cl)c1)C(=O)O; NPrPhe(4-CF3) = CCCN[C@@H](Cc1ccc(C(F)(F)F)cc1)C(=O)O; NMePhe(4-CF3) = CN[C@@H](Cc1ccc(C(F)(F)F)cc1)C(=O)O; NMeGly(cPent) = CN[C@H](C(=O)O)C1CCCC1; NMeD = CN[C@@H](CC(=O)O)C(=O)O; NMeL = CN[C@@H](CC(C)C)C(=O)O; Morpholide = C1CN(*)CCO1; Ac5c = NC1(C(=O)O)CCCC1; Aze = O=C(O)[C@@H]1CCN1; Ac4c = NC1(C(=O)O)CCC1; Sar = CNCC(=O)O

Legend:
[1] = target: GDP-bound KRAS wild-type protein (Homo sapiens, UniProt P01116); assay: Binding to KRAS by surface plasmon resonance (SPR), Single Cycle Kinetics; conditions: GDP-bound KRAS wild-type protein, read-out: KRAS KD
[2] = target: GDP-bound NRAS wild-type protein (Homo sapiens, UniProt P01111); assay: Binding to NRAS by surface plasmon resonance (SPR), Single Cycle Kinetics; conditions: for NRAS/KRAS (ratio of KD value with respect to GDP-bound NRAS wild-type protein to KD value with respect to KRAS): SPR KD ratio NRAS/KRAS, class symbols
[3] = target: GDP-bound HRAS wild-type protein (Homo sapiens, UniProt P01112); assay: Binding to HRAS by surface plasmon resonance (SPR), Single Cycle Kinetics; conditions: for HRAS/KRAS (ratio of KD value with respect to GDP-bound HRAS wild-type protein to KD value with respect to KRAS): SPR KD ratio HRAS/KRAS, class symbols
[4] = SPR Single Cycle Kinetics, 1:1 binding model
[5] = SPR, GDP-bound NRAS wild-type protein vs GDP-bound KRAS wild-type protein
[6] = SPR, GDP-bound HRAS wild-type protein vs GDP-bound KRAS wild-type protein

GDP-bound HRAS wild-type protein, sequence (P01112 whole entry): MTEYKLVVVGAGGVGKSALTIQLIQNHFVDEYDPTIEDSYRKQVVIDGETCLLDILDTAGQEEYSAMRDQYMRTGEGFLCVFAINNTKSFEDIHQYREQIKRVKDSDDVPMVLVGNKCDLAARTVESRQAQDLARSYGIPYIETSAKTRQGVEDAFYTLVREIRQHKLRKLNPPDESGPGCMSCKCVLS
GDP-bound NRAS wild-type protein, sequence (P01111 whole entry): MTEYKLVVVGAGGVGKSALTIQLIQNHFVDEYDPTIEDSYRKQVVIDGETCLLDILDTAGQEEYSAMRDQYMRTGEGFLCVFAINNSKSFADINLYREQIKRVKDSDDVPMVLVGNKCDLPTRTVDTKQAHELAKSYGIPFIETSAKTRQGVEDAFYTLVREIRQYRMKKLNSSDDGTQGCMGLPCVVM
GDP-bound KRAS wild-type protein, sequence (P01116 whole entry): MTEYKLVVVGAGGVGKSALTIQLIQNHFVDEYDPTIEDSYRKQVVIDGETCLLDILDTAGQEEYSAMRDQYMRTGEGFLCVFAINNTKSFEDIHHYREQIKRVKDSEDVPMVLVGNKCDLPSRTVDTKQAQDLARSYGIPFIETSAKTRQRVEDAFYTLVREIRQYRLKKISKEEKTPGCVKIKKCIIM

Row | SMILES | Kd [1, 4] | Kd ([1]; SPR, Single Cycle Kinetics) | NRAS/KRAS (ratio of KD value for NRAS to KD value for KRAS) [2, 5] | HRAS/KRAS (ratio of KD value for HRAS to KD value for KRAS) [3, 6] | also measured
1 | CCO[C@@H]1C[C@H]2C(=O)NC3(CCC(F)(F)CC3)C(=O)N(C)[C@@H](C3CCCC3)C(=O)N(C)[C@H](C(=O)N(C)C)CC(=O)N(C)[C@@H](C)C(=O)N[C@@H]([C@@H](C)CC)C(=O)N(C)CC(=O)N(C)[C@H]3CCCCCN(C3=O)[C@@H](Cc3ccc(C(F)(F)F)cc3)C(=O)N(C)CC(=O)N[C@@H](CCc3cc(F)c(C(F)(F)F)c(F)c3)C(=O)N2C1 [PP0725] | 5000 pM | – | – | – | NRAS/KRAS (ratio of KD value with respect to NRAS to KD value with respect to KRAS) [2, 5]: B (a compound having 3 or more and less than 10 is denoted as B); HRAS/KRAS (ratio of KD value with respect to HRAS to KD value with respect to KRAS) [3, 6]: B (a compound having 3 or more and less than 10 is denoted as B)
2 | CCO[C@@H]1C[C@H]2C(=O)NC3(CCC3)C(=O)N(C)[C@@H](C3CCCC3)C(=O)N(C)[C@H](C(=O)N3CCOCC3)CC(=O)N(C)[C@@H](COC)C(=O)N[C@@H]([C@@H](C)CC)C(=O)N(C)CC(=O)N(C)[C@H]3CCCCCN(C3=O)[C@@H](Cc3ccc(C(F)(F)F)cc3)C(=O)N(C)CC(=O)N[C@@H](CCc3ccc(C(F)(F)F)c(F)c3)C(=O)N2C1 [PP0848] | – | 570 pM | B (a compound having 3 or more and less than 10 is denoted as B) | B (a compound having 3 or more and less than 10 is denoted as B) | –
3 | CCC[C@H]1C(=O)N[C@@H]([C@@H](C)CC)C(=O)N(C)CC(=O)N(C)[C@H]2C/C=C\CCN(C2=O)[C@@H](Cc2ccc(C(F)(F)F)cc2)C(=O)N(C)CC(=O)N[C@@H](CCc2ccc3sc(C)c(C)c3c2)C(=O)N2C[C@H](OCC)C[C@H]2C(=O)NC2(CC(C)(C)C2)C(=O)N(C)[C@@H](C(CC)CC)C(=O)N(C)[C@H](C(=O)N(C)C)CC(=O)N1C [PP2900] | 440 pM | – | – | – | NRAS/KRAS (ratio of KD value with respect to GDP-bound NRAS wild-type protein to KD value with respect to KRAS) [2]: AA (a compound having 20 or more is denoted as AA); HRAS/KRAS (ratio of KD value with respect to GDP-bound HRAS wild-type protein to KD value with respect to KRAS) [3]: A (a compound having 10 or more and less than 20 is denoted as A)
4 | CC[C@H](C)[C@@H]1NC(=O)[C@H](CC(C)C)N(C)C(=O)C[C@@H](C(=O)N2CCOCC2)N(C)C(=O)[C@H](C2CCCC2)N(C)C(=O)C2(CCC2)NC(=O)[C@@H]2C[C@@H](OCC3CCCC3)CN2C(=O)[C@H](CCc2cc(F)c(C(F)(F)F)c(F)c2)NC(=O)CN(C)C(=O)[C@H](Cc2ccc(C(F)(F)F)cc2)N2CCCC[C@@H](C2=O)N(C)C(=O)CN(C)C1=O [PP1015] | – | 5000 pM | C (A compound having a KD ratio of 0.1 or more and less than 3 is denoted as C) | C (A compound having a KD ratio of 0.1 or more and less than 3 is denoted as C) | –
5 | CC[C@H](C)[C@@H]1NC(=O)[C@H](CC(C)C)N(C)C(=O)C[C@@H](C(=O)N2CCOCC2)N(C)C(=O)[C@H](C2CCCC2)N(C)C(=O)C2(CCCC2)NC(=O)[C@@H]2CCCN2C(=O)[C@H](CCc2ccc(C(F)(F)F)c(Cl)c2)NC(=O)CN(C)C(=O)[C@H](Cc2ccc(C(F)(F)F)cc2)N(C)C(=O)CN(C)C(=O)CN(C)C1=O [PP0076] ([NMeL]I[Sar][Sar][NMePhe(4-CF3)][Sar][hPhe(3-Cl-4-CF3)]P[Ac5c][NMeGly(cPent)][NMeD]-Morpholide; lactam N-11) | 64 pM | – | C (A compound having a KD ratio of 0.1 or more and less than 3 is denoted as C) | C (A compound having a KD ratio of 0.1 or more and less than 3 is denoted as C) | –
6 | CCCO[C@@H]1C[C@H]2C(=O)NC3(CC(C)(C)C3)C(=O)N(C)[C@@H](C(CC)CC)C(=O)N(C)[C@H](C(=O)N(C)C)CC(=O)N(C)[C@H]3CCCc4ccc(cc4)C[C@@H](C(=O)N(C)CC(=O)N[C@@H](CCc4ccc(C(F)(F)F)c(OC)c4)C(=O)N2C1)N1CC/C=C\C[C@@H](C1=O)N(C)C(=O)CN(C)C(=O)[C@H]([C@@H](C)CC)NC3=O [PP3063] | – | 560 pM | B (a compound having 3 or more and less than 10 is denoted as B) | B (a compound having 3 or more and less than 10 is denoted as B) | –
7 | CCO[C@@H]1C[C@H]2C(=O)NC3(CCC3)C(=O)N(C)[C@@H]([C@@H](C)CC)C(=O)N(C)[C@H](C(=O)N(C)C)CC(=O)N(C)[C@@H](CC)C(=O)N[C@@H]([C@@H](C)CC)C(=O)N(C)CC(=O)N(C)[C@H]3C/C=C\CCN(C3=O)[C@@H](Cc3ccc(C(F)(F)F)cc3)C(=O)N(C)CC(=O)N[C@@H](CCc3cc(F)c(C(F)(F)F)c(F)c3)C(=O)N2C1 [PP1087, (2S,8S,12R,14S,20S,23S,27S,30S,36S,38Z)-8-[2-[3,5-difluoro-4-(trifluoromethyl)phenyl]ethyl]-12-ethoxy-27-ethyl-N,N,4,19,22,26,32,35-octamethyl-20,30-bis[(1S)-1-methylpropyl]-3,6,9,15,18,21,25,28,31,34,42-undecaoxo-2-[[4-(trifluoromethyl)phenyl]methyl]spiro[1,4,7,10,16,19,22,26,29,32,35-undecazatricyclo[34.5.1.0^10,14]dotetracont-38-ene-17,1′-cyclobutane]-23-carboxamide] | – | 95 pM | A (a compound having 10 or more and less than 20 is denoted as A) | A (a compound having 10 or more and less than 20 is denoted as A) | –
8 | CCO[C@@H]1C[C@H]2C(=O)NC3(CCC3)C(=O)N(C)[C@@H](C3CCCC3)C(=O)N(CC)[C@H](C(=O)N(C)C)CC(=O)N(C)[C@@H](CC)C(=O)N[C@@H]([C@@H](C)CC)C(=O)N(C)CC(=O)N(C)[C@H]3C/C=C\CCN(C3=O)[C@@H](Cc3ccc(C(F)(F)F)cc3)C(=O)N(C)CC(=O)N[C@@H](CCc3cc(F)c(C(F)(F)F)c(F)c3)C(=O)N2C1 [PP0980] | – | 880 pM | A (a compound having 10 or more and less than 20 is denoted as A) | B (a compound having 3 or more and less than 10 is denoted as B) | –
9 | CCC[C@H]1C(=O)N[C@@H]([C@@H](C)CC)C(=O)N(C)CC(=O)N(C)[C@H]2C/C=C\CCN(C2=O)[C@@H](Cc2ccc(C(F)(F)F)cc2)C(=O)N(C)CC(=O)N[C@@H](CCc2ccc(C(F)(F)F)c(Cl)c2)C(=O)N2CC3(CC3)C[C@H]2C(=O)NC2(CC(C)(C)C2)C(=O)N(C)[C@@H]([C@@H](C)CC)C(=O)N(C)[C@H](C(=O)N(C)C)CC(=O)N1C [PP2983] | – | 500 pM | AA (a compound having 20 or more is denoted as AA) | A (a compound having 10 or more and less than 20 is denoted as A) | –
10 | CCC(CC)[C@H]1C(=O)N(C)[C@H](C(=O)N(C)C)CC(=O)N(C)[C@H]2CCC/C=C/c3ccc(cc3)C[C@@H](C(=O)N(C)CC(=O)N[C@@H](CCc3cc(F)c(C(F)(F)F)c(F)c3)C(=O)N3C[C@H](OC(C)C)C[C@H]3C(=O)NC3(CC(C)(C)C3)C(=O)N1C)N1CC/C=C\C[C@@H](C1=O)N(C)C(=O)CN(C)C(=O)[C@H]([C@@H](C)CC)NC2=O [PP2594] | 100 pM | – | – | – | NRAS/KRAS (ratio of KD value with respect to GDP-bound NRAS wild-type protein to KD value with respect to KRAS) [2]: A (a compound having 10 or more and less than 20 is denoted as A); HRAS/KRAS (ratio of KD value with respect to GDP-bound HRAS wild-type protein to KD value with respect to KRAS) [3]: A (a compound having 10 or more and less than 20 is denoted as A)
11 | CCC[C@H]1C(=O)N[C@@H]([C@@H](C)CC)C(=O)N(C)CC(=O)N(C)[C@H]2C/C=C\CCN(C2=O)[C@@H](Cc2ccc(C(F)(F)F)cc2)C(=O)N(C)CC(=O)N[C@@H](CCc2cc(F)c(C(F)(F)F)c(F)c2)C(=O)N2C[C@H](OCC)C[C@H]2C(=O)NC2(CCC2)C(=O)N(C)[C@@H](C2CCCC2)C(=O)N(C)[C@H](C(=O)N(C)CCOC)CC(=O)N1C [PP1331, (2S,8S,12R,14S,20S,23S,27S,30S,36S,38Z)-20-cyclopentyl-8-[2-[3,5-difluoro-4-(trifluoromethyl)phenyl]ethyl]-12-ethoxy-N-(2-methoxyethyl)-N,4,19,22,26,32,35-heptamethyl-30-[(1S)-1-methylpropyl]-3,6,9,15,18,21,25,28,31,34,42-undecaoxo-27-propyl-2-[[4-(trifluoromethyl)phenyl]methyl]spiro[1,4,7,10,16,19,22,26,29,32,35-undecazatricyclo[34.5.1.0^10,14]dotetracont-38-ene-17,1′-cyclobutane]-23-carboxamide] | – | – | – | – | Kd ([1]; SPR, Single Cycle Kinetics, 1:1 binding model): 80 pM; NRAS/KRAS (ratio of KD value for NRAS to KD value for KRAS) ([2]; SPR, GDP-bound NRAS wild-type protein vs GDP-bound KRAS wild-type protein, KD ratio class): A (a compound having 10 or more and less than 20 is denoted as A); HRAS/KRAS (ratio of KD value for HRAS to KD value for KRAS) ([3]; SPR, GDP-bound HRAS wild-type protein vs GDP-bound KRAS wild-type protein, KD ratio class): A (a compound having 10 or more and less than 20 is denoted as A)
12 | CCCN1C(=O)[C@@H]2CCN2C(=O)CN(C)C(=O)[C@H]([C@@H](C)CC)NC(=O)[C@H](CC(C)C)N(C)C(=O)C[C@@H](C(=O)N(C)C)NC(=O)[C@H](C2CCCC2)N(C)C(=O)C2(CCC2)NC(=O)[C@@H]2CCCN2C(=O)[C@H](CCc2ccc(C(F)(F)F)c(Cl)c2)NC(=O)CN(C)C(=O)[C@@H]1Cc1ccc(C(F)(F)F)cc1 [PP0386] ([NMeL]I[Sar][Aze][NPrPhe(4-CF3)][Sar][hPhe(3-Cl-4-CF3)]P[Ac4c][NMeGly(cPent)]D-NMe2; lactam N-11) | 690 pM | – | C (A compound having a KD ratio of 0.1 or more and less than 3 is denoted as C) | B (a compound having 3 or more and less than 10 is denoted as B) | –
